The first experiment concerns HCV 1b-377-neo replicon cells. As to the kind of experiment: HCV replicon assay, HCV 1b-377-neo replicon cells (1b FRET). The settings on record: HCV 1b-377-neo replicon cells; HCV 1b genotype; read-out: EC50 range against HCV 1b (Table 2, Range). Format: cell-based, Hepatitis C virus genotype 1b. The procedure, abridged: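 FRET-based replicon assay in HCV 1b-377-neo cells, including a comparison line carrying the NS5A Y2065H mutation that confers resistance to a reference compound.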
A general note: Replicon systems follow genome replication, usually without infectious particles.
For `O=C(N[C@@H](C(=O)N1CCC[C@H]1c1ncc(-c2ccc(-c3ccc(-c4cnc([C@@H]5CCCN5C(=O)[C@H](NC(=O)[C@H]5CCCO5)c5ccccc5)[nH]4)cc3)cc2)[nH]1)c1ccccc1)[C@H]1CCCO1` [Example 25-1, (2R,2′R)-N,N′-(4,4′-biphenyldiylbis(1H-imidazole-5,2-diyl(2S)-2,1-pyrrolidinediyl((1R)-2-oxo-1-phenyl-2,1-ethanediyl)))ditetrahydro-2-furancarboxamide], the EC50 (in general, the concentration that produces a half-maximal response) lay within 1 to 999 pM.

The same experiment, now with this note: Hepatitis C virus, HCV 1b-377-neo replicon cells; HCV 1b genotype; read-out: EC50 range against HCV 1b (Table 2, Range).
For `CNC(=O)N[C@@H](C(=O)N1C[C@H](O)C[C@H]1c1ncc(-c2ccc(-c3ccc(-c4cnc([C@@H]5C[C@@H](O)CN5C(=O)[C@H](NC(=O)NC)c5ccccc5)[nH]4)cc3)cc2)[nH]1)c1ccccc1` [Example 24-13, N,N″-(4,4′-biphenyldiylbis(1H-imidazole-5,2-diyl((2S,4R)-4-hydroxy-2,1-pyrrolidinediyl)((1R)-2-oxo-1-phenyl-2,1-ethanediyl)))bis(3-methylurea)], the concentration giving a half-maximal response (EC50) is 100000 to 999000 pM.

With `CCNC(=O)N[C@@H](C(=O)N1C[C@H](O)C[C@H]1c1ncc(-c2ccc(-c3ccc(-c4cnc([C@@H]5C[C@@H](O)CN5C(=O)[C@H](NC(=O)NCC)c5ccccc5)[nH]4)cc3)cc2)[nH]1)c1ccccc1` [Example 24-14, N′,N′′′-(4,4′-biphenyldiylbis(1H-imidazole-5,2-diyl((2S,4R)-4-hydroxy-2,1-pyrrolidinediyl)((1R)-2-oxo-1-phenyl-2,1-ethanediyl)))bis(1-ethylurea)], the EC50 lay in the range of 1000 to 99000 pM. As to `O=C(NC1CCCC1)N[C@@H](C(=O)N1C[C@H](O)C[C@H]1c1ncc(-c2ccc(-c3ccc(-c4cnc([C@@H]5C[C@@H](O)CN5C(=O)[C@H](NC(=O)NC5CCCC5)c5ccccc5)[nH]4)cc3)cc2)[nH]1)c1ccccc1` [Example 24-15, N′,N′′′-(4,4′-biphenyldiylbis(1H-imidazole-5,2-diyl((2S,4R)-4-hydroxy-2,1-pyrrolidinediyl)((1R)-2-oxo-1-phenyl-2,1-ethanediyl)))bis(1-cyclopentylurea)], the EC50 was 1000 to 99000 pM. For `CN(C)[C@@H](C(=O)N1C[C@@H](O)C[C@H]1c1ncc(-c2ccc(-c3ccc(-c4cnc([C@@H]5C[C@H](O)CN5C(=O)[C@@H](c5ccccc5)N(C)C)[nH]4)cc3)cc2)[nH]1)c1ccccc1` [Example 24-16, (3S,5S,3′S,5′S)-5,5′-(4,4′-biphenyldiylbis(1H-imidazole-5,2-diyl))bis(1-((2R)-2-(dimethylamino)-2-phenylacetyl)-3-pyrrolidinol)], the EC50 lay in the range of 1 to 999 pM.

`COC(=O)N[C@@H](C(=O)N1C[C@@H](O)C[C@H]1c1ncc(-c2ccc(-c3ccc(-c4cnc([C@@H]5C[C@H](O)CN5C(=O)[C@H](NC(=O)OC)c5ccccc5)[nH]4)cc3)cc2)[nH]1)c1ccccc1` [Example 24-17, dimethyl (4,4′-biphenyldiylbis(1H-imidazole-5,2-diyl((2S,4S)-4-hydroxy-2,1-pyrrolidinediyl)((1R)-2-oxo-1-phenyl-2,1-ethanediyl)))biscarbamate]: the EC50 fell in the range of 1 to 999 pM. As to `O=C([C@H](O)c1ccccc1)N1C[C@@H](O)C[C@H]1c1ncc(-c2ccc(-c3ccc(-c4cnc([C@@H]5C[C@H](O)CN5C(=O)[C@H](O)c5ccccc5)[nH]4)cc3)cc2)[nH]1` [Example 24-18, (3S,5S,3′S,5′S)-5,5′-(4,4′-biphenyldiylbis(1H-imidazole-5,2-diyl))bis(1-((2R)-2-hydroxy-2-phenylacetyl)-3-pyrrolidinol)], the EC50 lay within 1 to 999 pM.

`COC(=O)N[C@@H](C(=O)N(C)[C@@H](C)c1ncc(-c2ccc(-c3ccc(-c4cnc([C@H](C)N(C)C(=O)[C@H](NC(=O)OC)c5ccccc5)[nH]4)cc3)cc2)[nH]1)c1ccccc1` [Example 24-18-1, dimethyl (4,4′-biphenyldiylbis(1H-imidazole-5,2-diyl(1S)-1,1-ethanediyl(methylimino)((1R)-2-oxo-1-phenyl-2,1-ethanediyl)))biscarbamate]: the EC50 lay within 1 to 999 pM. Still for that read-out and setting: next, `C[C@@H](c1ncc(-c2ccc(-c3ccc(-c4cnc([C@H](C)N(C)C(=O)[C@@H](c5ccccc5)N(C)C)[nH]4)cc3)cc2)[nH]1)N(C)C(=O)[C@@H](c1ccccc1)N(C)C` [Example 24-18-2, (2R,2′R)-N,N′-(4,4′-biphenyldiylbis(1H-imidazole-5,2-diyl(1S)-1,1-ethanediyl))bis(2-(dimethylamino)N-methyl-2-phenylacetamide)]: 1 to 999 pM; `C[C@@H](c1ncc(-c2ccc(-c3ccc(-c4cnc([C@H](C)N(C)C(=O)[C@@H](c5ccccc5)N5CCCCC5)[nH]4)cc3)cc2)[nH]1)N(C)C(=O)[C@@H](c1ccccc1)N1CCCCC1` [Example 24-18-3, (2R,2′R)-N,N′-(4,4′-biphenyldiylbis(1H-imidazole-5,2-diyl(1S)-1,1-ethanediyl))bis(N-methyl-2-phenyl-2-(1-piperidinyl)acetamide)]: 1 to 999 pM; `COC(=O)N[C@@H](C(=O)N(C)[C@@H](C)c1ncc(-c2ccc(-c3ccc(-c4cnc([C@@H]5CCCN5C(=O)[C@H](NC(=O)OC)c5ccccc5)[nH]4)cc3)cc2)[nH]1)c1ccccc1` [Example 24-18-4, methyl ((1R)-2-((2S)-2-(5-(4′-(2-((1S)-1-(((2R)-2-((methoxycarbonyl)amino)-2-phenylacetyl)(methyl)amino)ethyl)-1H-imidazol-5-yl)-4-biphenylyl)-1H-imidazol-2-yl)-1-pyrrolidinyl)-2-oxo-1-phenylethyl)carbamate]: 1 to 999 pM. Take `C[C@@H](c1ncc(-c2ccc(-c3ccc(-c4cnc([C@@H]5CCCN5C(=O)[C@@H](c5ccccc5)N(C)C)[nH]4)cc3)cc2)[nH]1)N(C)C(=O)[C@@H](c1ccccc1)N(C)C` [Example 24-18-5, (2R)-2-(dimethylamino)-N-((1S)-1-(5-(4′-(2-((2S)-1-((2R)-2-(dimethylamino)-2-phenylacetyl)-2-pyrrolidinyl)-1H-imidazol-5-yl)-4-biphenylyl)-1H-imidazol-2-yl)ethyl)-N-methyl-2-phenylacetamide]: the EC50 lay within 1 to 999 pM. With `C[C@@H](c1ncc(-c2ccc(-c3ccc(-c4cnc([C@@H]5CCCN5C(=O)[C@@H](c5ccccc5)N5CCCCC5)[nH]4)cc3)cc2)[nH]1)N(C)C(=O)[C@@H](c1ccccc1)N1CCCCC1` [Example 24-18-6, (2R)-N-methyl-2-phenyl-N-((1S)-1-(5-(4′-(2-((2S)-1-((2R)-2-phenyl-2-(1-piperidinyl)acetyl)-2-pyrrolidinyl)-1H-imidazol-5-yl)-4-biphenylyl)-1H-imidazol-2-yl)ethyl)-2-(1-piperidinyl)acetamide], the EC50 fell in the range of 1 to 999 pM. Turning to `COC(=O)N[C@H](C(=O)N1CCC[C@H]1c1ncc(-c2ccc(-c3ccc(-c4cnc([C@@H]5CCCN5C(=O)[C@@H](NC(=O)OC)C(C)C)[nH]4)cc3)cc2)[nH]1)C(C)C` [Example 24-23], the half-maximal effective concentration (EC50) is 1 to 999 pM. With `CC(=O)N[C@@H](C(=O)N1CCC[C@H]1c1ncc(-c2ccc(-c3ccc(-c4cnc([C@@H]5CCCN5C(=O)[C@H](NC(C)=O)c5ccccc5)[nH]4)cc3)cc2)[nH]1)c1ccccc1` [Example 25, N,N′-(4,4′-biphenyldiylbis(1H-imidazole-5,2-diyl(2S)-2,1-pyrrolidinediyl((1R)-2-oxo-1-phenyl-2,1-ethanediyl)))diacetamide], the half-maximal effective concentration (EC50) lay in the range of 1 to 999 pM. Turning to `Cn1cncc1C(=O)N[C@@H](C(=O)N1CCC[C@H]1c1ncc(-c2ccc(-c3ccc(-c4cnc([C@@H]5CCCN5C(=O)[C@H](NC(=O)c5cncn5C)c5ccccc5)[nH]4)cc3)cc2)[nH]1)c1ccccc1` [Example 25-2, N,N′-(4,4′-biphenyldiylbis(1H-imidazole-5,2-diyl(2S)-2,1-pyrrolidinediyl((1R)-2-oxo-1-phenyl-2,1-ethanediyl)))bis(1-methyl-1H-imidazole-5-carboxamide)], the EC50 lay within 1 to 999 pM.

Turning to `CN1CCC[C@H]1C(=O)N[C@@H](C(=O)N1CCC[C@H]1c1ncc(-c2ccc(-c3ccc(-c4cnc([C@@H]5CCCN5C(=O)[C@H](NC(=O)[C@@H]5CCCN5C)c5ccccc5)[nH]4)cc3)cc2)[nH]1)c1ccccc1` [Example 25-3, (2S,2′S)-N,N′-(4,4′-biphenyldiylbis(1H-imidazole-5,2-diyl(2S)-2,1-pyrrolidinediyl((1R)-2-oxo-1-phenyl-2,1-ethanediyl)))bis(1-methyl-2-pyrrolidinecarboxamide)], the EC50 lay in the range of 1 to 999 pM. The same measure, in the same setting: with `O=C(Cc1cccnc1)N[C@@H](C(=O)N1CCC[C@H]1c1ncc(-c2ccc(-c3ccc(-c4cnc([C@@H]5CCCN5C(=O)[C@H](NC(=O)Cc5cccnc5)c5ccccc5)[nH]4)cc3)cc2)[nH]1)c1ccccc1` [Example 25-4, N,N′-(4,4′-biphenyldiylbis(1H-imidazole-5,2-diyl(2S)-2,1-pyrrolidinediyl((1R)-2-oxo-1-phenyl-2,1-ethanediyl)))bis(2-(3-pyridinyl)acetamide)] the figure was 1 to 999 pM; with `CN(C)CC(=O)N[C@@H](C(=O)N1CCC[C@H]1c1ncc(-c2ccc(-c3ccc(-c4cnc([C@@H]5CCCN5C(=O)[C@H](NC(=O)CN(C)C)c5ccccc5)[nH]4)cc3)cc2)[nH]1)c1ccccc1` [Example 25-5, N,N′-(4,4′-biphenyldiylbis(1H-imidazole-5,2-diyl(2S)-2,1-pyrrolidinediyl((1R)-2-oxo-1-phenyl-2,1-ethanediyl)))bis(2-(dimethylamino)acetamide)], 1 to 999 pM. For `O=C(N[C@@H](C(=O)N1CCC[C@H]1c1ncc(-c2ccc(-c3ccc(-c4cnc([C@@H]5CCCN5C(=O)[C@H](NC(=O)N5CCOCC5)c5ccccc5)[nH]4)cc3)cc2)[nH]1)c1ccccc1)N1CCOCC1` [Example 25-6, N,N′-(4,4′-biphenyldiylbis(1H-imidazole-5,2-diyl(2S)-2,1-pyrrolidinediyl((1R)-2-oxo-1-phenyl-2,1-ethanediyl)))di(4-morpholinecarboxamide)], the half-maximal effective concentration (EC50) lay in the range of 1000 to 99000 pM.

The values are drawn from patent US8574563B2 (Bristol-Myers Squibb Company, priority 2006, dated 2013).
